Measurements as given in patent US20260102359A1, “COMBINATION TREATMENT OF DERMAL AND TRANSDERMAL FIBROTIC DISEASES, DISORDERS AND ASSOCIATED PAIN AND INFLAMMATION” (ERESINA, LLC, priority 2022, published 2026).
Where a name gives a salt, the structure may show the parent alone. Where a SMILES comes first, the peptide text is derived from it.

Test system: hDMFa myofibroblast cells

| SMILES | Compound Myofibroblast Cytotoxicity Activity |
| --- | --- |
| C[C@H](CCC(=O)NCC(=O)O)[C@H]1CC[C@H]2[C@@H]3[C@H](O)C[C@@H]4C[C@H](O)CC[C@]4(C)[C@H]3C[C@H](O)[C@]12C [Cmpd 488, Glycocholic Acid] | ++++ |
| NCC(=O)NCC(=O)O [Cmpd 489, Glycylglycine] (H-Gly-Gly-OH) | ++ |
| C[C@]1(OC(=O)/C=C/c2ccccc2)C[C@@H](O)[C@]2(O)C=CO[C@@H](O[C@@H]3O[C@H](CO)[C@@H](O)[C@H](O)[C@H]3O)[C@@H]21 [Cmpd 499, Harpagoside] | ++ |
| COc1ccc([C@@H]2CC(=O)c3c(O)cc(O)cc3O2)cc1O [Cmpd 503, Hesperitin] | ++ |
| Oc1c(Cl)cc(Cl)c(Cl)c1Cc1c(O)c(Cl)cc(Cl)c1Cl [Cmpd 504, Hexachlorophene] | +++++ |
| C[Si]1(C)O[Si](C)(C)O[Si](C)(C)O1 [Cmpd 505, Hexamethylcyclotrisiloxane] | + |
| CC[C@H]1CN2CC[C@H]1C[C@@H]2[C@@H](O)c1ccnc2ccc(OC)cc12 [Cmpd 508, Hydroquinidine] | ++ |
| Oc1ccc(O)cc1 [Cmpd 509, Hydroquinone] | ++ |
| CC(=O)[C@]1(O)Cc2c(O)c3c(c(O)c2[C@@H](O[C@H]2C[C@H](N)[C@H](O)[C@H](C)O2)C1)C(=O)c1ccccc1C3=O [Cmpd 515, Idarubicin HCl] | +++++ |
| O=P1(NCCCl)OCCCN1CCCl (centres unmarked) [Cmpd 518, Ifosfamide] | +++ |
| CN(C)CCCN1c2ccccc2CCc2ccccc21 [Cmpd 523, Imipramine (hydrochloride)] | +++ |
| CC1Cc2ccccc2N1NC(=O)c1ccc(Cl)c(S(N)(=O)=O)c1 (centres unmarked) [Cmpd 527, Indapamide] | +++ |
| O=C1/C(=C2\Nc3ccc(S(=O)(=O)[O-])cc3C2=O)Nc2ccc(S(=O)(=O)[O-])cc21.[Na+].[Na+] [Cmpd 528, Indigo carmine] | ++ |
| NC(=O)c1ccc(I)c([N+](=O)[O-])c1 [Cmpd 531, Iniparib (BSI-201)] | +++++ |
| Clc1ccc(C(Cn2ccnc2)OCc2c(Cl)cccc2Cl)c(Cl)c1 (centres unmarked) [Cmpd 535, Isoconazole nitrate] | +++ |
| CC=Cc1ccc(O)c(OC)c1 [Cmpd 536, Isoeugenol] | ++ |
| O=C(O)c1ccncc1 [Cmpd 537, Isonicotinic acid] | ++++ |
| CC(=O)Nc1ccc(C(=O)O)cc1.CC(=O)Nc1ccc(C(=O)O)cc1.CC(=O)Nc1ccc(C(=O)O)cc1.CC(O)CN(C)C.CC(O)CN(C)C.CC(O)CN(C)C.O=c1[nH]cnc2c1ncn2[C@@H]1O[C@H](CO)[C@@H](O)[C@H]1O [Cmpd 538, Isoprinosine] | ++ |
| CC(C)NCC(O)c1ccc(O)c(O)c1 (centres unmarked) [Cmpd 539, Isoproterenol sulfate dihydrate] | ++ |
| O=[N+]([O-])O[C@@H]1CO[C@H]2[C@@H]1OC[C@@H]2O [Cmpd 540, Isosorbide 5-mononitrate] | ++ |
| CC(COc1ccccc1)NC(C)C(O)c1ccc(O)cc1 (centres unmarked) [Cmpd 542, Isoxsuprine (hydrochloride)] | ++ |

| SMILES | Compound Myofibroblast Cytotoxicity Activity |
| --- | --- |
| Cc1ccc(C(=O)N(CCCN)[C@@H](c2nc3cc(Cl)ccc3c(=O)n2Cc2ccccc2)C(C)C)cc1 [Cmpd 543, Ispinesib (SB-715992)] | +++++ |
| COC(=O)C1=C(C)NC(C)=C(C(=O)OC(C)C)C1c1cccc2nonc12 (centres unmarked) [Cmpd 544, Isradipine (Dynacirc)] | ++ |
| C[C@H]1O[C@H](OC2[C@@H](O)[C@@H](O)C(O)[C@H](O)[C@H]2O)[C@@H](N)C[C@@H]1N=C(N)C(=O)O.Cl (some centres unmarked) [Cmpd 548, Kasugamycin (hydrochloride)] | +++ |
| CC(CCc1ccccc1)NCC(O)c1ccc(O)c(C(N)=O)c1 (centres unmarked) [Cmpd 553, Labetalol HCl] | ++ |
| CS(=O)(=O)CCNCc1ccc(-c2ccc3ncnc(Nc4ccc(OCc5cccc(F)c5)c(Cl)c4)c3c2)o1 [Cmpd 558, Lapatinib Ditosylate] | +++ |
| CCN(C(=O)c1c(O)c2c(Cl)cccc2n(C)c1=O)c1ccccc1 [Cmpd 559, Laquinimod (ABR-215062)] | ++++ |
| N=C(N)NCCC[C@H](N)C(=O)O [Cmpd 561, L-Arginine] | ++ |
| O=C1O[C@H]([C@@H](O)CO)C(O)=C1O [Cmpd 562, L-Ascorbic Acid (Vitamin C)] | + |
| CCCCCCCCCCCC(=O)O [Cmpd 564, Lauric Acid] | ++ |
| CCCCCCCCCCCCN1CCCCCC1=O [Cmpd 565, Laurocapram] | +++++ |
| Cc1c(C(=O)Nc2ccc(N3C[C@@H](C)O[C@@H](C)C3)nc2)cccc1-c1ccc(OC(F)(F)F)cc1.O=P(O)(O)O.O=P(O)(O)O [Cmpd 572, LDE225 Diphosphate] | ++ |
| Cl.c1ccc2c(-c3cnn4cc(-c5ccc(N6CCNCC6)cc5)cnc34)ccnc2c1 [Cmpd 574, LDN193189 Hydrochloride] | +++++ |
| c1cc(-c2cnn3cc(-c4ccc(N5CCNCC5)cc4)cnc23)c2cccnc2c1 [Cmpd 575, LDN-212854] | ++++ |
| Nc1cccc2c1CN(C1CCC(=O)NC1=O)C2=O (centres unmarked) [Cmpd 578, Lenalidomide (CC-5013)] | ++ |
| CCOC(=O)C1=C(COCCN)NC(C)=C(C(=O)OC)[C@@H]1c1ccccc1Cl [Cmpd 580, Levamlodipine] | +++++ |
| CC(=O)CCC(=O)O [Cmpd 583, Levulinic acid] | ++ |
| N[C@@H](CCC(=O)O)C(=O)[O-].[Na+] [Cmpd 584, L-Glutamic acid monosodium salt] | ++ |
| N[C@@H](CCC(=O)N[C@@H](CS)C(=O)NCC(=O)O)C(=O)O [Cmpd 585, L-Glutathione Reduced] | ++++ |
| N[C@@H](Cc1c[nH]cn1)C(=O)O [Cmpd 586, L-Histidine] | + |
| CC1(C)Cc2c(-c3ccccc3)c(-c3ccc(Cl)cc3)c(CC(=O)O)n2C1 [Cmpd 588, Licofelone] | +++ |
| CCN(CC)CC(=O)Nc1c(C)cccc1C.Cl.O [Cmpd 589, Lidocaine hydrochloride monohydrate] | ++ |

| SMILES | Compound Myofibroblast Cytotoxicity Activity |
| --- | --- |
| CCCCC/C=C\C/C=C\CCCCCCCC(=O)O [Cmpd 591, Linoleic Acid] | +++ |
| C[C@]1(O)C[C@@H](c2nc(-c3ccc4ccc(-c5ccccc5)nc4c3)c3c(N)nccn32)C1 [Cmpd 592, Linsitinib] | +++ |
| CC[C@H](C)[C@H](N)C(=O)O [Cmpd 594, L-Isoleucine] | + |
| O=C([O-])[O-].[Li+].[Li+] [Cmpd 595, Lithium carbonate] | ++++ |
| CC(C)C[C@H](N)C(=O)O [Cmpd 596, L-Leucine] | +++ |
| CSCC[C@H](N)C(=O)O [Cmpd 600, L-Methionine] | ++++ |
| CN(C)C(=O)C(CCN1CCC(O)(c2ccc(Cl)cc2)CC1)(c1ccccc1)c1ccccc1 [Cmpd 606, Loperamide HCl] | +++ |
| CC(C(=O)O)c1ccc(CC2CCCC2=O)cc1 (centres unmarked) [Cmpd 611, Loxoprofen Sodium] | ++ |
| O=C(O)[C@@H]1CCCN1 [Cmpd 612, L-Proline] | ++++ |
| O=C1CC[C@@H](C(=O)O)N1 [Cmpd 613, L-Pyroglutamic acid] | ++++ |
| C[C@@H](O)[C@H](N)C(=O)O [Cmpd 614, L-Threonine] | +++++ |
| N[C@@H](Cc1c[nH]c2ccccc12)C(=O)O [Cmpd 615, L-Tryptophan] | ++ |
| CC(C)[C@H](N)C(=O)O [Cmpd 618, L-Valine] | ++ |
| CCN1CCN(Cc2ccc(Nc3ncc(F)c(-c4cc(F)c5nc(C)n(C(C)C)c5c4)n3)nc2)CC1 [Cmpd 622, LY2835219 free base] | ++++ |
| C[C@H]1[C@H](C)CC[C@]2(C(=O)O)CC[C@]3(C)C(=CC[C@@H]4[C@@]5(C)C[C@@H](O)[C@H](O)[C@@](C)(CO)[C@@H]5[C@H](O)C[C@]43C)[C@H]12 [Cmpd 625, Madecassic acid] | +++++ |
| NCc1ccc(S(N)(=O)=O)cc1 [Cmpd 626, Mafenide Acetate] | ++++ |
| Cl.NCc1ccc(S(N)(=O)=O)cc1 [Cmpd 627, Mafenide hydrochloride] | ++ |
| O=C(O)CC(=O)O [Cmpd 631, Malonic acid] | ++++ |
| CC(C)OC(=O)C(C(=O)OC(C)C)=C1SC=CS1 [Cmpd 632, Malotilate] | ++ |
| CNCCCC12CCC(c3ccccc31)c1ccccc12 [Cmpd 635, Maprotiline HCl] | +++ |
